# Reference: patent US12643899B2, “Antiviral agents, uses thereof and methods for their preparation” (The University of British Columbia, priority 2020, dated 2026)
# Read-outs that look alike come from different tables or passages of the source.
# Key:
# [1] = test system: ZIKV; test: Extracellular ZIKV titer in infected brain organoids; type: cell-based, Zika virus; details: 1 μM CA, 72 hours
# Description: FIG. 18 is a plot showing extracellular ZIKV titer for four brain organoid systems after treatment with 1 μM CA for 72 hours in comparison to untreated controls.
# (§1) FIG. 17 is a schematic showing the general method 20 used in Example 6. Referring to FIG. 17, following growth of the brain organoids in STEMdiff™ media 22 (4 organoids/well), the media was aspirated 24. Then, 500 μL ZIKV at the desired MOI in fresh media was added 26 and the brain organoids incubated at 37° C. for 3 hours with gentle shaking 28. The brain organoids were then washed with 2×1 mL PBS 30, and fresh media and CA or cladoniamide C (CC) added to the desired concentration 32 prior to incubation for the desired time at 37° C. 34. The supernatant was collected and frozen at −86° C. 36 prior to analysis and the brain organoids transferred to an Eppendorf with paraformaldehyde for electron microscopy 38.
# (§2) FIG. 18 is a plot showing the anti-ZIKV activity of cladoniamide A (incubation with 1 μM CA for 72 hours; 2 biological replicates, each with 4 organoids/well) using four brain organoid systems. There was a greater than 4-log reduction in extracellular ZIKV titer when treated with CA. […] FIGS. 20 and 21 show plots showing the anti-ZIKV activity of CA and CC (incubation with 10 μM CA or CC for 69 hours, MOI 1; 4 technical replicates as there were 4 organoids/[…]).
# [2] = test system: human coronavirus 229E (HCoV-229E); test: HCoV-229E intracellular viral dsRNA assay in Huh-7 cells; type: cell-based; details: Huh-7, 48 h
# Description: An IF-based assay was used to monitor viral dsRNA in infected cells.
# CA pre-treatment: Cladoniamide A was added to non-infected Huh-7 cells (3 h). Cells were washed with PBS and inoculated with human coronavirus 229E (HCoV-229E) for 3 hours, then HCoV-229E was removed and the cells were washed with PBS once more. 48 hours post-infection, the cells were fixed and the intra-cellular viral dsRNA was quantified (HCS CX5 system). CA added post-infection: Huh-7 cells were inoculated with HCoV-229E for 3 hours. Then HCoV-229E was removed and cells were washed with PBS. Cladoniamide A was added to these infected cells. 48 hours post-infection, the cells were fixed and the intra-cellular viral dsRNA was quantified (HCS CX5 system).
# [3] = test system: brain organoids; test: CellTiter Glo 3D cell viability assay in brain organoids; type: cell-based; details: 1 μM
# Description: FIG. 19 is a plot showing toxicity results for brain organoids treated with 1 μM CA.
# as §2
# [4] = test system: ZIKV; test: ZIKV infectivity by semisolid overlay plaque assay after pre-treatment of A549 and U87 MG cells; type: cell-based, Zika virus; details: for reduction in ZIKV titer: CA 250 nM 1 h pre-treatment, MOI 1.0, 3 d
# [5] = MTS cytotoxicity assay in U87 MG cells; type: cell-based; details: human, U87 MG cells (human brain)
# Description: (§3) An MTS assay was performed to determine the cytotoxicity concentration 50% (CC50) of cladoniamide A (CA) in human A549 cells, a cell line from human lung carcinoma. Various concentrations of CA were added to cultured A549 cells and incubated (37° C., 5% CO2) for 48 h. Cell viability was then measured by an MTS assay kit (CellTiter 96™ Aqueous One Solution cell proliferation assay, Promega) according to the manufacturer's instructions. Curve fitting was performed in Igor Pro (WaveMetrics) using a hyperbolic fit algorithm (FIG. 1). The CC50 of CA in A549 cells was determined to be 54±5 μM. An MTS assay was also performed to determine the CC50 of CA in human U87 MG cells, a cell line from human brain. Various concentrations of CA were added to cultured U87 MG cells and incubated (37° C., 5% CO2) for 48 h. Cell viability was then measured by an MTS assay kit (CellTiter 96 Aqueous One Solution cell proliferation assay, Promega) according to the manufacturer's instructions. Curve fitting was performed in Igor Pro (WaveMetrics) using a hyperbolic fit algorithm (FIG. 2).
# [6] = test system: SARS-CoV-2; test: SARS-CoV-2 intracellular viral RNA and nucleocapsid protein in Caco-2 cells; type: cell-based
# [7] = test system: ZIKV; test: NS1 and dsRNA in ZIKV-infected brain organoids; type: cell-based, Zika virus; details: 10 μM, 69 hours, MOI 1
# Description: as §1, §2
# [8] = MTS cytotoxicity assay in A549 cells; type: cell-based, human; details: human, A549 cells (human lung carcinoma)
# Description: as §3
# [9] = test system: ZIKV; test: Time-of-addition study of ZIKV infection in A549 cells (plaque assay); type: cell-based, Zika virus; details: 250 nM CA; full lifecycle, pre-replication, post-replication; A549, MOI 1.0
# Description: Error bars represent SEM among 3 biological replicates. Significance was calculated by a 2-tailed unpaired Student's t-test. *, p<0.05.
# Cultured A549 cells were inoculated with ZIKV for 1 h at MOI 1.0, and maintained for 2 d under different experimental conditions. For “Full lifecycle” 250 nM CA was added following the inoculation and maintained in the medium for 2 d; for “Pre-replication” 250 nM CA was added following the inoculation and maintained in the medium for 6 h, after which the cells were washed with PBS and the medium was changed; and for “Post-replication” 250 nM CA was added to the culture medium 12 hours post infection (hpi) and maintained until 24 hpi, after which the cells were washed with PBS and the medium was changed.
compound,measurement,setting,value
"COc1c2n(c3ccccc13)[C@]1(O)C(=O)N(C)C(=O)[C@]1(O)c1c-2[nH]c2ccc(Cl)cc12 [CA, (11S,15R)-7-chloro-11,15-dihydroxy-23-methoxy-13-methyl-3,13,16-triazahexacyclo[14.7.0.0^2,10.0^4,9.0^11,15.0^17,22]tricosa-1(23),2(10),4(9),5,7,17,19,21-octaene-12,14-dione]",reduction in extracellular ZIKV titer,[1],greater than 4 log
same,EC50,[2],0.015 µM
same,toxicity to brain organoids,[3],not toxic
same,reduction in ZIKV titer,[4]; A549 cells,greater than 4 log
same,reduction in ZIKV titer,[4]; U87 MG cells,greater than 4 log
same,inhibition of production of infectious ZIKV virions,"[4]; at 50 nm (so in the source), FIG. 3",dramatically inhibited
same,CC50 at 48 h,[5],42 ± 12 µM
same,EC50,"[6]; Severe acute respiratory syndrome coronavirus 2, Caco-2, read-out: ED50, intracellular SARS-CoV-2 nucleocapsid protein, Caco-2 cells, 3 hours pre-treatment",0.005 µM
same,EC50,"[6]; Severe acute respiratory syndrome coronavirus 2, Caco-2, read-out: ED50, intracellular viral RNA, Caco-2 cells, 3 hours pre-treatment",0.002 µM
same,"anti-ZIKV activity in brain organoids (NS1, dsRNA)",[7],showed anti-ZIKV activity
same,CC50 at 48 h,[8],54 ± 5 µM
same,step of ZIKV infection inhibited,[9],dual inhibitor of ZIKV infection targeting the entry and maturation steps
